Assay results reported in ChEMBL document CHEMBL1201862, “PubChem BioAssay data set” (2004).
Calls of active or inactive are those of the source.

Tests used:
[1] = biological target: Cytochrome P450 3A4 (Homo sapiens, UniProt P08684); settings: Potency;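 note: confirmatory qHTS run detecting inhibitors and substrates of CYP3A4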
[2] = biological target: T1, Small ubiquitin-related modifier 1 (Homo sapiens, UniProt P63165); test: inhibitors of SUMO1 partner interactions, dose response, biochemical, FRET (AID 624383); type: functional; settings: read-out: IC50_Mean
T1 sequence (P63165 whole entry): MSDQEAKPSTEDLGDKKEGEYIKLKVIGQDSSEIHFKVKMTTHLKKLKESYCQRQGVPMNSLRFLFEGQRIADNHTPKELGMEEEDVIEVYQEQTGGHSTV

[3] = biological target: Eukaryotic translation initiation factor 4E (Mus musculus, UniProt P63073); test: eIF4E–eIF4G protein interaction inhibitors, dose response, biochemical, TR-FRET (AID 855); type: functional;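 note: potency for disrupting eIF4E binding to eIF4GI seen as loss of FRET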
Eukaryotic translation initiation factor 4E, sequence (P63073 whole entry): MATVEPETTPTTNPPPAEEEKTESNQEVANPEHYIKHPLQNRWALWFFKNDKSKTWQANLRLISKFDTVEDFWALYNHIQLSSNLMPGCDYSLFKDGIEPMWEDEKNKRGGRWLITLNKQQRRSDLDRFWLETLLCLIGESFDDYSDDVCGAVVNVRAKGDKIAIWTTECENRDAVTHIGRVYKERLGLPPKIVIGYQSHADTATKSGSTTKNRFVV

[4] = biological target: T1, Small ubiquitin-related modifier 1; test: inhibitors of SUMO1 peptide binding, dose response, biochemical, fluorescence polarization, uHTS hits (AID 624382); type: functional; settings: read-out: IC50_Mean
[5] = biological target: NAD-dependent protein deacylase sirtuin-5, mitochondrial (Homo sapiens, UniProt Q9NXA8); test: SIRT5 desuccinylase inhibitors, dose response, biochemical, fluorescence imaging, cherry-pick, set 5 (AID 720591);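 note: desuccinylation of succinyl peptide AMC substrate read as fluorescence after trypsin release; potency of inhibitors that lower fluorescence and may act on trypsin instead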
NAD-dependent protein deacylase sirtuin-5, mitochondrial, sequence (Q9NXA8 whole entry): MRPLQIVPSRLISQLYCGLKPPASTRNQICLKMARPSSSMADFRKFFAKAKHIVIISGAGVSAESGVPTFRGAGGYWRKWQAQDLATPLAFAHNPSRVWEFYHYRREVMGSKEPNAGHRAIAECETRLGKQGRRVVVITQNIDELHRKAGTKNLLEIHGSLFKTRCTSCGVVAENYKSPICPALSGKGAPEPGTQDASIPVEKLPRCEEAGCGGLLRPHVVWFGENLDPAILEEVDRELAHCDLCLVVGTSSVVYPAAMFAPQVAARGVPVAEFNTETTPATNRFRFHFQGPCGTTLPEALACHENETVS

[6] = tested on: BJ; test: cytotoxicity toward BJ-TERT-LT-ST fibroblasts, dose response, cell-based, RAS-independent, luminescence (AID 1935); type: functional; settings: Homo sapiens;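 note: BJ fibroblasts immortalized with TERT plus LT and ST oncogenes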
[7] = Luminescence Cell-Based Dose Confirmation HTS to Identify Inhibitors of Platelet Dense Granule Release. [Related pubchem assays: 1663 (Primary HTS), 1678 (Summary of Project)]; type: functional
[8] = cytotoxicity toward DRD oncogenic fibroblasts, dose response, cell-based, non-viral oncogenic, luminescence (AID 1934); type: functional; settings: Homo sapiens
[9] = biological target: Luciferin 4-monooxygenase (Photinus pyralis, UniProt P08659); test: firefly luciferase enzyme inhibitors, dose response, biochemical, luminescence (AID 1891)
[10] = tested on: BJ; test: cytotoxicity toward BJ-TERT fibroblasts, dose response, cell-based, RAS-independent, luminescence (AID 1933); type: functional; settings: Homo sapiens
[11] = tested on: BJ; test: cells; type: functional, cell-based; settings: Homo sapiens
[12] = biological target: Peroxisome proliferator-activated receptor gamma/Nuclear receptor coactivator 2 (Homo sapiens, UniProt P37231); type: functional;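 note: agonist potency for raising coactivator recruitment to the receptor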
Peroxisome proliferator-activated receptor gamma/Nuclear receptor coactivator 2, sequence (P37231 whole entry): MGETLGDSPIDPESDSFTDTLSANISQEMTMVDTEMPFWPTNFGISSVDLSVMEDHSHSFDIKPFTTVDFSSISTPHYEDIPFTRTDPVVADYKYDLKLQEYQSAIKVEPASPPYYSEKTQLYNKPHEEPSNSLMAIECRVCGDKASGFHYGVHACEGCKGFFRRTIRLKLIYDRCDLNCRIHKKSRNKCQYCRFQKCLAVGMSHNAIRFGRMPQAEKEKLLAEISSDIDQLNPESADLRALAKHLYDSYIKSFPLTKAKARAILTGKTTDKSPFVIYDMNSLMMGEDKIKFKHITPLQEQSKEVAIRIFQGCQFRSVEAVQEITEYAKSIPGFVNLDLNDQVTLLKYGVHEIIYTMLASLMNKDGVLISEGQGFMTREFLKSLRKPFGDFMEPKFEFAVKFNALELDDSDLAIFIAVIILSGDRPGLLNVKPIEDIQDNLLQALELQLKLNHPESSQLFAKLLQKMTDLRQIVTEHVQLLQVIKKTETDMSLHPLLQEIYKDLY
Peroxisome proliferator-activated receptor gamma/Nuclear receptor coactivator 2, sequence (Q15596 whole entry, further chain): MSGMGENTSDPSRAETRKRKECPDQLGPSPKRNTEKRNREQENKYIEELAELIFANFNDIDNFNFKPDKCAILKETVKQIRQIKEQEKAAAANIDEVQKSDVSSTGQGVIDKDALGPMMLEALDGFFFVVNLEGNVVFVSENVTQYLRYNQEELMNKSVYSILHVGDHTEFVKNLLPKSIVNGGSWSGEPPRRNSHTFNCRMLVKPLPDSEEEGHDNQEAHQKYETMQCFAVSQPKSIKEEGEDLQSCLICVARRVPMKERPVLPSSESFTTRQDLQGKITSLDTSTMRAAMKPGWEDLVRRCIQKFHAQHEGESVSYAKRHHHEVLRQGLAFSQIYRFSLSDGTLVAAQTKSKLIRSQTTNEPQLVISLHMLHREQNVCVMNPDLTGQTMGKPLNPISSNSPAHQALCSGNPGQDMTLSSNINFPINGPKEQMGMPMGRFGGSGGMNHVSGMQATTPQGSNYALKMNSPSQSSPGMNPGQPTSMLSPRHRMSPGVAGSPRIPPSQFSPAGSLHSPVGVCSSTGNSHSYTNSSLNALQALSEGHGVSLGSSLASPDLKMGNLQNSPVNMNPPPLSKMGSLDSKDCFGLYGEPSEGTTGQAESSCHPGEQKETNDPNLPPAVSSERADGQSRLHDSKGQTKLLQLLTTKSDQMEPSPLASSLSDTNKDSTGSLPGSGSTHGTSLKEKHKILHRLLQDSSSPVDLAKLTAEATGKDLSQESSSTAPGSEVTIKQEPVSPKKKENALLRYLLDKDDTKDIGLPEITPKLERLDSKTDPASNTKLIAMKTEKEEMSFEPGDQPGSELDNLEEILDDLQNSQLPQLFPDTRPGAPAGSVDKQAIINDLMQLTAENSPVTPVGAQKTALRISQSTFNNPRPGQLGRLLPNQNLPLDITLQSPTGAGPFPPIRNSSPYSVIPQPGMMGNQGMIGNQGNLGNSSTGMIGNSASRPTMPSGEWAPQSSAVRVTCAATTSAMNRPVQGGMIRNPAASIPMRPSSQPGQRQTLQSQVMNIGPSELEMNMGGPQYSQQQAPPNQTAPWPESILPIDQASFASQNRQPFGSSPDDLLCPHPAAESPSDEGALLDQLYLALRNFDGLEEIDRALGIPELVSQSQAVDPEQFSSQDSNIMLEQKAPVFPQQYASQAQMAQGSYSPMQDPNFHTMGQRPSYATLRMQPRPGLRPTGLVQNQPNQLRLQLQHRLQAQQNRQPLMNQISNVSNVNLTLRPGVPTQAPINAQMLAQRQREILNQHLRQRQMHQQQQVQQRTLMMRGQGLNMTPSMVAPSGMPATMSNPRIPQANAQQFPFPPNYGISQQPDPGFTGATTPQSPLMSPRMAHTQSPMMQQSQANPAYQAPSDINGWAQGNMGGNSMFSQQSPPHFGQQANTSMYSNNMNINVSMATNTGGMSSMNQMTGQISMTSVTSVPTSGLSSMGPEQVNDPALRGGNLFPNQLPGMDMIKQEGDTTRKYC

[13] = biological target: Peroxisome proliferator-activated receptor gamma/Nuclear receptor coactivator 3 (Homo sapiens, UniProt P37231); type: functional;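 note: agonist potency for raising coactivator recruitment to the receptor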
Peroxisome proliferator-activated receptor gamma/Nuclear receptor coactivator 3, sequence (P37231 whole entry): as the sequence (P37231 whole entry) above
Peroxisome proliferator-activated receptor gamma/Nuclear receptor coactivator 3, sequence (Q9Y6Q9 whole entry, further chain): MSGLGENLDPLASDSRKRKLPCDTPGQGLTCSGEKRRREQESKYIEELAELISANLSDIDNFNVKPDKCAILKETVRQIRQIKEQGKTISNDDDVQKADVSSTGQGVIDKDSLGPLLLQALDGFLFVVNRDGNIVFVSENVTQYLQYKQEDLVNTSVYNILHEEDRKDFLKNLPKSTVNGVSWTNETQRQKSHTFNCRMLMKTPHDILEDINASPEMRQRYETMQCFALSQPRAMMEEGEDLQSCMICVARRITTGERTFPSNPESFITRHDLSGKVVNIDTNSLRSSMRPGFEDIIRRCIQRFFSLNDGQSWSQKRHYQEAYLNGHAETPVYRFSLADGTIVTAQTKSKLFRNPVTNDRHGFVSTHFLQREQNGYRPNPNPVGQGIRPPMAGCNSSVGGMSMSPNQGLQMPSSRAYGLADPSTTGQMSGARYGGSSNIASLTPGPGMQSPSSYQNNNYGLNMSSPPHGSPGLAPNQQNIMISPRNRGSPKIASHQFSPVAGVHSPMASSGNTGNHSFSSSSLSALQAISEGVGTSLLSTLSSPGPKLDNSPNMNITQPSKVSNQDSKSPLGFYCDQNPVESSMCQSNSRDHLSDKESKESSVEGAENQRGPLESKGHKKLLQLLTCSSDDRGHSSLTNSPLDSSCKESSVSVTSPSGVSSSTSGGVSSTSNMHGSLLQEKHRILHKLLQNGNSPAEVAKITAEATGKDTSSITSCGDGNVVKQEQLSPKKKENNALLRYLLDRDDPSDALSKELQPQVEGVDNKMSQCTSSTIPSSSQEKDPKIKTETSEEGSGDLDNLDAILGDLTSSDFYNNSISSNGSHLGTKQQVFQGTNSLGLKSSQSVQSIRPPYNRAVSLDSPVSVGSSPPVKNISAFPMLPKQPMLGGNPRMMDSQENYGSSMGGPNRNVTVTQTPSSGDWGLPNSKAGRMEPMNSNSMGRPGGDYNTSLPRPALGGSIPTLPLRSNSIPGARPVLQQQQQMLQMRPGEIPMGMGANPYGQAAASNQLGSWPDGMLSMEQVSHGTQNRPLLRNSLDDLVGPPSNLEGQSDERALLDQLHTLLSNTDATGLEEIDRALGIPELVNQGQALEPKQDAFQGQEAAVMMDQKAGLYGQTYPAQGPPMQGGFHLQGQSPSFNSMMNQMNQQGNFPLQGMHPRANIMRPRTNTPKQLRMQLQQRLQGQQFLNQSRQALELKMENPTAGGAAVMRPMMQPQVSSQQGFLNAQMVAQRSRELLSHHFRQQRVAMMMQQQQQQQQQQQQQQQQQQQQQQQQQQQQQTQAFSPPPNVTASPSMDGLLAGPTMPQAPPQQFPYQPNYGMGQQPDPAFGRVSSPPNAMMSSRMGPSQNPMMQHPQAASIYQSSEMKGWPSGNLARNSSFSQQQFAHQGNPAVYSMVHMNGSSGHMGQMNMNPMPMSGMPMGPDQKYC

[14] = biological target: Peroxisome proliferator-activated receptor gamma/Nuclear receptor coactivator 1 (Homo sapiens, UniProt P37231); type: functional;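 note: agonist potency as compounds enhance coactivator SRC-1 recruitment to PPARgamma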
[15] = inhibitors of intracellular T. cruzi replication, confirmation, NIH3T3 host cells, beta-gal luminescence (AID 2044); type: functional, cell-based;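 note: intracellular parasites grown in NIH/3T3 mouse fibroblasts as host cells; luminescent beta-galactosidase reporter signal from transgenic T. cruzi replicating inside host cells; inhibitors lower the luminescence signal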
[16] = cytotoxicity toward NIH3T3 fibroblasts, dose response, counter-screen, cell-based, ATP luminescence, mouse fibroblasts (AID 2010); type: functional;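 note: cells exposed to compound for about 90 hours before reading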
[17] = biological target: Induced myeloid leukemia cell differentiation protein Mcl-1 (Homo sapiens, UniProt Q07820); type: functional
[18] = biological target: Cytochrome P450 2C9 (Homo sapiens, UniProt P11712)
[19] = biological target: T2, Bcl-2-like protein 10 (Homo sapiens, UniProt Q9HD36); test: displacers of TR3 peptide from Bcl-B, primary screen, selectivity assay for Bfl-1 inhibitor project, biochemical, fluorescence polarization, FITC-TR3 peptide (AID 748);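 note: fluorescence polarization from a fluorescein-labelled TR3 peptide binding purified Bcl-B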
T2 sequence (Q9HD36 whole entry): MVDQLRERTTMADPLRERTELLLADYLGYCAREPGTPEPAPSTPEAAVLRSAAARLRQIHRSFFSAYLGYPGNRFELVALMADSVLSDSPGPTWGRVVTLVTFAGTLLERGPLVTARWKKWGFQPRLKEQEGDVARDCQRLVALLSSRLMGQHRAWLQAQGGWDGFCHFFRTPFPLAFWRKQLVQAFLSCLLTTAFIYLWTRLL

[20] = biological target: T3, fMet-Leu-Phe receptor (Homo sapiens, UniProt P21462); test: FPR ligands, dose response (AID 519); type: functional
T3 sequence (P21462 whole entry): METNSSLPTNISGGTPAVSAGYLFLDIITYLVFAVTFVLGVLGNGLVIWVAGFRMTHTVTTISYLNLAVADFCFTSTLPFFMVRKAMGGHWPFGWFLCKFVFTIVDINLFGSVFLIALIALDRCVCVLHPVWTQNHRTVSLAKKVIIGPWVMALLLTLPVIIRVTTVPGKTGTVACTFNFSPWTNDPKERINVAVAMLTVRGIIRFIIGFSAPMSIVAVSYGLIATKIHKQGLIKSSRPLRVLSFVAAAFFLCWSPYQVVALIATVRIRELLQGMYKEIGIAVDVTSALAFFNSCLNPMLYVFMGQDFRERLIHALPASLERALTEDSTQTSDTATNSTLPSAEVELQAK

[21] = biological target: T4, Rac GTPase-activating protein 1 (Homo sapiens, UniProt Q9H0H5); test: MgcRacGAP GTPase-activating activity inhibitors, confirmation, biochemical, ADP Hunter fluorescence, primary and confirmatory (AID 624330); type: functional
T4 sequence (Q9H0H5 whole entry): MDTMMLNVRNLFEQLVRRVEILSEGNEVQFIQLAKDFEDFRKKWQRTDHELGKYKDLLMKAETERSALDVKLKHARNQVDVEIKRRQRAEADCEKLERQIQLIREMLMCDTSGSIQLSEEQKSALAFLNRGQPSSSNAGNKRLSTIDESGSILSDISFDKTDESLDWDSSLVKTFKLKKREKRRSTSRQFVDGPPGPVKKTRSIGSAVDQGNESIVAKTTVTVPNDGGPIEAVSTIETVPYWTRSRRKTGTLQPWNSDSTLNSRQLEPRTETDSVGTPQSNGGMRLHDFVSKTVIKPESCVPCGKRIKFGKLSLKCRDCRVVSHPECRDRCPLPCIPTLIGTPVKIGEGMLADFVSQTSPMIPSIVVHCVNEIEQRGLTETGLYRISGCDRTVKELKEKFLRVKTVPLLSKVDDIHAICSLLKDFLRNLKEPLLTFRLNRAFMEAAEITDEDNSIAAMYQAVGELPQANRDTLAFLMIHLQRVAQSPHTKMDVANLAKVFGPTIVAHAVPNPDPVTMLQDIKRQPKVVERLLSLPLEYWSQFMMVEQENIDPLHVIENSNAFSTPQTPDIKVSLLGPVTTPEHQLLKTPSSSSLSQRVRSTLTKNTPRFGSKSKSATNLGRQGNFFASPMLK

[22] = biological target: T5, DNA repair protein RAD52 homolog (Homo sapiens, UniProt P43351); type: functional, biochemical
T5 sequence (P43351 whole entry): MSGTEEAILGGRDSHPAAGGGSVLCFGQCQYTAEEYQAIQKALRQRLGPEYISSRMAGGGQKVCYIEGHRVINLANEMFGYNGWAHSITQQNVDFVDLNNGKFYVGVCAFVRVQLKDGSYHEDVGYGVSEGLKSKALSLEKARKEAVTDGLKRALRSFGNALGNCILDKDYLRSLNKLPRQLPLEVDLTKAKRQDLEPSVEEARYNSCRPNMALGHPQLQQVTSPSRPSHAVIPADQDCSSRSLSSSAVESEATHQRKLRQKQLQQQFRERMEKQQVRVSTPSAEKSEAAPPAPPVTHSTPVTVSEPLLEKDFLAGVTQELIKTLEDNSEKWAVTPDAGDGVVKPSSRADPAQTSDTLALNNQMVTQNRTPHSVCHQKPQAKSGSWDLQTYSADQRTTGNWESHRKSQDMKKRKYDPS

[23] = biological target: T6, Carboxy-terminal domain RNA polymerase II polypeptide A small phosphatase 1 (Homo sapiens, UniProt Q9GZU7); test: inhibitors of CTDSP1, concentration-response testing, biochemical assay, absorbance-based, actives from ultra-high-throughput screening (AID 540297); type: functional
T6 sequence (Q9GZU7 whole entry): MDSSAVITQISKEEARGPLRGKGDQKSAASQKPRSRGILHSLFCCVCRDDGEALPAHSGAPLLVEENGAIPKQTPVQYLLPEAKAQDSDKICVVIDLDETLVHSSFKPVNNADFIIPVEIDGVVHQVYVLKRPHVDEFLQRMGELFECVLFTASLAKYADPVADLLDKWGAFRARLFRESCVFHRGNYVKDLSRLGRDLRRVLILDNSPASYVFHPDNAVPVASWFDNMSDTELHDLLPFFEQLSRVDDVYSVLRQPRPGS

[24] = P. falciparum Dd2 growth inhibitors, dose response, SYBR Green, cherry-picked samples (AID 1159567); type: functional, cell-based
[25] = P. falciparum Dd2 growth inhibitors, dose response, SYBR Green, dry powder samples (AID 1159566); type: functional, cell-based;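 note: potency for growth inhibition with lower SYBR green DNA signal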
[26] = P. falciparum 3D7-ScDHODH growth inhibitors, dose response, SYBR Green, dry powder samples (AID 1159570); type: functional, cell-based;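 note: parasite growth measured after 72 hours of compound exposure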
[27] = P. falciparum ATP4 D1247Y mutant growth inhibitors, dose response, NITD609-resistant line, SYBR Green, dry powder (AID 1159571); type: functional, cell-based;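 note: parasites synchronized at ring stage by sorbitol before testing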
[28] = HepG2 cell cytotoxicity, dose response, cytotoxicity control, cherry-picked samples (AID 1159577); type: functional, cell-based

Cytochrome P450 3A4, sequence (P08684 whole entry): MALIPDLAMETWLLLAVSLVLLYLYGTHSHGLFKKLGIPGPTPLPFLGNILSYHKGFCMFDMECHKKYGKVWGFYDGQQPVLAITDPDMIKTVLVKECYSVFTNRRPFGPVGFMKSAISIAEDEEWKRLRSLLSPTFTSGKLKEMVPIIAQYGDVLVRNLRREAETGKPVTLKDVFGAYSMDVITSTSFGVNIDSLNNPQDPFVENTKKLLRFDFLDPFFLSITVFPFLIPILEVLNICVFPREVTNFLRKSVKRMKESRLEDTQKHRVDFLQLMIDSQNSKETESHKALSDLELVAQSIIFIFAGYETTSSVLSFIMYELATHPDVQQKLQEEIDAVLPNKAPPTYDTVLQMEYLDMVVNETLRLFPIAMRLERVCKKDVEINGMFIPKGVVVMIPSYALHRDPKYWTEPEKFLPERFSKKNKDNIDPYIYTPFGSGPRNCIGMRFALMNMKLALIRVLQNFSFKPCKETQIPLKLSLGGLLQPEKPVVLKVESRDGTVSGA

SMILES: N#CCC(=O)NC(=O)NCC1CC1
- AC50 [1]: 0.0126 µM (inconclusive)

SMILES: COc1ccc(OC)c(-c2csc(NC(=O)Cn3[nH]c(=O)c4ccccc4c3=O)n2)c1
- IC50 [2]: 100 µM (inactive)
- IC50 [3]: 50 µM (inactive)
- IC50 [4]: > 66.6 µM (inactive)
- AC50 [5]: 28 µM (active)

SMILES: Cc1ncsc1C(=O)Nc1nc2c(s1)CCCC2
- EC50 [6]: > 150 µM (not active)
- EC50 [7]: 3.99 µM (active)
- EC50 [8]: 20.9 µM (inconclusive)
- EC50 [9]: 3.81 µM (active)
- EC50 [10]: 18 µM (active)
- EC50 [11]: 20 µM (active)

SMILES: CCc1ccc(N(C(=O)c2csnn2)C(C(=O)NC(C)(C)C)c2cccnc2)cc1 (stereo not given)
- EC50 [12]: > 79.4 µM (not active)
- EC50 [13]: > 79.4 µM (not active)
- EC50 [14]: > 79.4 µM (not active)

SMILES: CCn1cc(S(=O)(=O)Nc2ccccc2C(F)(F)F)cn1
- EC50 [12]: > 79.4 µM (not active)
- EC50 [13]: > 79.4 µM (not active)
- EC50 [14]: > 79.4 µM (not active)

SMILES: c1nc[nH]n1
- AC50 [1]: 31.6 µM (inconclusive)

SMILES: CN(C)CCCN(C(=O)c1ccc(N2C(=O)CCC2=O)cc1)c1nc2c(F)cccc2s1
- EC50 [12]: > 79.4 µM (not active)
- EC50 [13]: > 79.4 µM (not active)
- EC50 [15]: 0.471 µM (active)
- EC50 [16]: > 30 µM (not active)
- EC50 [14]: > 79.4 µM (not active)

SMILES: O=C(COC(=O)c1ccc2c(c1)C(=O)N(Cc1ccncc1)C2=O)Nc1ccccc1[N+](=O)[O-]
- IC50 [17]: 4.84 µM (active)

SMILES: Cc1ccc(-n2nc3ccc(NC(=O)c4ccc5c(c4)OCO5)cc3n2)cc1
- AC50 [18]: 4.47 µM (inconclusive)
- IC50 [19]: 73.3 µM (inactive)

SMILES: COC(=O)C1=[N+]([O-])OC(C(=O)OC)C1c1c[nH]c2ccccc12 (stereo not given)
- Ki [20]: > 66.7 µM (inactive)

SMILES: COC(=O)[C@@H]1C[C@H]2CC[C@H](O)C[C@H]2N1CC1CC1
- AC50 [1]: 20 µM (inconclusive)

SMILES: CCN1CCN(c2ccc(N)c(C)c2)CC1
- IC50 [21]: 48.3 µM (active)
- AC50 [22]: 3.46 µM (active)

SMILES: COc1ccc(S(=O)(=O)N2CCOCC2)cc1NC(=O)CSc1n[nH]c(C(C)C)n1
- AC50 [5]: > 30 µM (inactive)

SMILES: COc1ccc(S(=O)(=O)N2CCOc3ccccc32)cc1
- EC50 [6]: 10.3 µM (inconclusive)
- EC50 [8]: 13.1 µM (inconclusive)
- EC50 [10]: 14 µM (active)
- EC50 [11]: 55.9 µM (inconclusive)

SMILES: CCN(C(=O)Cc1c(C(=O)O)[nH]c2ccccc12)c1cc(OC)ccc1OC
- Ki [20]: 18.4 µM (inactive)

SMILES: CCN(CC)C(=O)CSc1nc2ncccc2[nH]1
- EC50 [12]: > 79.4 µM (not active)
- EC50 [13]: > 79.4 µM (not active)
- EC50 [14]: > 79.4 µM (not active)

SMILES: O=C(Nc1ccc(Nc2ccccc2)cc1)c1ccc(Br)o1
- Ki [20]: > 66.7 µM (inactive)

SMILES: CSc1ccccc1NC(=O)COC(=O)CCC(=O)c1ccc(F)cc1
- AC50 [5]: > 30 µM (inactive)

SMILES: O=C(N/N=C/c1ccco1)c1cccc(N2Cc3ccccc3C2)c1
- IC50 [17]: 3.75 µM (active)
- IC50 [23]: 4.27 µM (active)

SMILES: C[C@H](CO)N1C[C@H](C)[C@H](CN(C)S(=O)(=O)c2ccc([N+](=O)[O-])cc2)OCc2ccccc2-c2c(n(C)c3ccccc23)C1=O
- AC50 [24]: 1 µM (active)
- AC50 [25]: 0.305 µM (active)
- AC50 [26]: 0.476 µM (active)
- AC50 [27]: 0.308 µM (active)

SMILES: CCc1csc(N2[C@H](C#N)[C@H](c3ccccc3-c3ccc(F)cc3)[C@H]2CO)n1
- AC50 [24]: 2.65 µM (active)
- AC50 [25]: 0.989 µM (active)
- AC50 [26]: 1.13 µM (active)
- AC50 [27]: 5.46 µM (active)

SMILES: COc1ccc2c3c([nH]c2c1)[C@@H](CO)N(C(=O)CN(C)C)CC31CN(CC2CCCC2)C1
- AC50 [28]: 13.8 µM (active)
- AC50 [24]: 2.12 µM (active)

SMILES: Nc1ccc(-c2ccc(N)cc2)cc1 [BENZIDINE]
- AC50 [1]: 25.1 µM (inconclusive)
- IC50 [21]: 7.39 µM (active)
